# Data from PubChem BioAssay AID2658 (Sanford-Burnham Center for Chemical Genomics, 2010).
# pIC50: −log10 of the molar value. “And” between values parts separate entries of the source, which are not always exact repeats. Equal values may be shown once. The source made the active and inactive calls. The rule behind the calls is not given here.
# Target: Ubiquitin-conjugating enzyme E2 N (Homo sapiens) (UniProt P61088)
# Assay: Ubc13/Uev1a ubiquitination inhibitors, SAR follow-up, selectivity assay, biochemical, TR-FRET (AID 2658)
# Details: Ubc13/Uev1a polyubiquitination, in vitro
# Ubiquitin-conjugating enzyme E2 N (Homo sapiens), sequence (P61088 whole entry, looked up): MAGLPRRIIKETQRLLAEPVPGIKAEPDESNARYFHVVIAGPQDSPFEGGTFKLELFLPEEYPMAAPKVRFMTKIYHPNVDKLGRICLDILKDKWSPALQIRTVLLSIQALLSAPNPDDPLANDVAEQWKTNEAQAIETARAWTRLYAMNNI
SMILES,IC50,pIC50
CCOc1cc(C2c3c(oc4ccccc4c3=O)C(=O)N2c2nccs2)ccc1O (centres undefined),> 100 µM (inactive),
Cc1ccccc1NC(=O)Cn1c(O)c(N=NC(=O)c2ccccc2O)c2ccccc21,,4.01
N=C(N)c1ccc2cc(OC(=O)c3ccc(N=C(N)N)cc3)ccc2c1,,4.85
O=C(COC(=O)c1cc(-c2ccco2)nc2ccccc12)NC(=O)c1ccccc1,,4.03
Nc1ccc2c(c1)C1C=CCC1C(c1ccccc1)N2 (centres undefined),> 100 µM (inactive),
COc1ccc(CCNC(=O)COC(=O)c2cc(-c3ccco3)nc3ccccc23)cc1,> 100 µM (inactive),
O=C(O)c1ccc2c(c1)C1C=CCC1C(c1ccc(F)cc1)N2 (centres undefined),> 100 µM (inactive),
C=CCn1c(NS(=O)(=O)c2ccccc2)c(S(=O)(=O)c2ccc(C)cc2)c2nc3ccccc3nc21,> 100 µM (inactive),
COc1ccc(CNC(=O)CCOC(=O)c2cc(-c3ccco3)nc3ccccc23)cc1,> 100 µM (inactive),
COc1cc(C2c3c(oc4ccccc4c3=O)C(=O)N2c2nccs2)ccc1O (centres undefined),> 100 µM (inactive),
Cc1ccsc1C=Nc1ccc(F)cc1,> 100 µM (inactive),
Cc1cccc2c(N=Nc3ccc(S(=O)(=O)Nc4cccc(Cl)c4)cc3[N+](=O)[O-])c(O)[nH]c12,> 100 µM (inactive),
CCCCn1c(NC(=O)c2ccc(Br)o2)c(S(=O)(=O)c2ccccc2)c2nc3ccccc3nc21,> 100 µM (inactive),
Cc1[nH][nH]c(=O)c1C(c1ccc(-c2ccc(C(=O)O)cc2)o1)c1c(C)[nH][nH]c1=O,> 100 µM (inactive),
O=C(COC(=O)c1cc(-c2ccco2)nc2ccccc12)NCc1ccc(Cl)cc1,,4.13
COc1ccc(CNC(=O)COC(=O)c2cc(-c3ccc(C)o3)nc3ccccc23)cc1,,4.06
Cc1ccc(O)c(N=Cc2cccs2)c1,> 100 µM (inactive),
Cc1ccsc1C=Nc1ccc(O)cc1,> 100 µM (inactive),
O=C(OCC(=O)N1CCN(C(=O)c2ccco2)CC1)c1cc(-c2ccco2)nc2ccccc12,,4.03

SMILES,IC50,pIC50
COc1ccc(CCNC(=O)c2cc(-c3ccco3)nc3ccccc23)cc1,,4.19
O=C(N=Nc1c(O)n(Cc2ccccc2)c2ccccc12)c1cc2ccccc2cc1O,> 100 µM (inactive),
COc1ccccc1CNC(=O)CNC(=O)c1cc(-c2ccco2)nc2ccccc12,> 100 µM (inactive),
O=C(COC(=O)c1cc(-c2ccco2)nc2ccccc12)NCc1ccccc1,> 100 µM (inactive),
O=C1c2oc3ccccc3c(=O)c2C(c2ccc(O)cc2)N1c1nccs1 (centres undefined),> 100 µM (inactive),
CCN(CC)S(=O)(=O)c1ccc(O)c(NC(=O)c2cc(-c3cc(OC)c(OC)c(OC)c3)nc3ccccc23)c1,> 100 µM (inactive),
CN(C(=O)COC(=O)c1cc(-c2ccco2)nc2ccccc12)C1CCS(=O)(=O)C1 (centres undefined),,4.33
O=C(O)c1ccc2c(c1)C1C=CCC1C(c1ccccc1)N2 (centres undefined),> 100 µM (inactive),
C=CCC(Nc1ccccc1)C12C=CC(O1)C(C(=O)OC)=C2C(=O)OC (centres undefined),> 100 µM (inactive),
COc1ccccc1C(=O)NC(=O)COC(=O)c1cc(-c2ccco2)nc2ccccc12,> 100 µM (inactive),
COc1ccccc1COC(=O)COC(=O)c1cc(-c2ccco2)nc2ccccc12,,4.17
COc1ccc(CNC(=O)COC(=O)c2cc(-c3ccco3)nc3ccccc23)c(OC)c1,> 100 µM (inactive),
COc1ccccc1NC(=O)COC(=O)c1cc(-c2ccco2)nc2ccccc12,16.7 µM and > 100 µM (inactive),
NS(=O)(=O)c1ccc2c(c1)C1C=CCC1C(c1ccc([N+](=O)[O-])cc1)N2 (centres undefined),> 100 µM (inactive),
O=[N+]([O-])c1ccc2[nH]c(O)c(N=NC(=S)Nc3cccnc3)c2c1,> 100 µM (inactive),
Fc1ccc(C2Nc3ccccc3C3C=CCC32)cc1 (centres undefined),> 100 µM (inactive),
Cc1c(Cl)cccc1NS(=O)(=O)c1ccc2c(c1)C1C=CCC1C(c1ccc(C(=O)O)cc1)N2 (centres undefined),> 100 µM (inactive),
COc1ccc(C=NNc2cc(N3CCCC3)nc(N3CCCC3)n2)cc1,,4.27
Cc1ccsc1C=Nc1ccc(C(N)=O)cc1,> 100 µM (inactive),

SMILES,IC50,pIC50
COc1ccccc1CNC(=O)COC(=O)c1cc(-c2ccco2)nc2ccccc12,,4.22
COc1ccc(CCNC(=O)COC(=O)c2cc(-c3ccco3)nc3ccccc23)cc1OC,,4.03
O=C(O)c1ccc(NS(=O)(=O)c2ccc3c(c2)C2C=CCC2C(c2ccccc2F)N3)cc1 (centres undefined),> 100 µM (inactive),
Cc1[nH][nH]c(=O)c1C(c1ccc(-c2cccc(C(=O)O)c2)o1)c1c(C)[nH][nH]c1=O,> 100 µM (inactive),
O=C(NNc1cc(N2CCCC2)nc(N2CCCC2)n1)c1ccc([N+](=O)[O-])cc1,> 100 µM (inactive),
COc1ccc(NC(=O)c2cc(-c3ccco3)nc3ccccc23)cc1S(=O)(=O)N1CCOCC1,,4.27
COC(=O)c1ccc2c(c1)C1C=CCC1C(c1ccc(C(=O)O)cc1)N2 (centres undefined),> 100 µM (inactive),
COc1ccc2c(c1)C(NC(C)=O)C(=O)N2CCN1CCOCC1 (centres undefined),,4.06
COC(=O)c1cccc(-c2ccc(C(c3c(C)[nH][nH]c3=O)c3c(C)[nH][nH]c3=O)o2)c1,> 100 µM (inactive),
Cc1ccc(N=Cc2sccc2C)cc1C,> 100 µM (inactive),
CCCCn1c(NS(=O)(=O)c2ccccc2)c(S(=O)(=O)c2ccc(C)cc2)c2nc3ccccc3nc21,> 100 µM (inactive),
Cc1ccc(C2Nc3ccc(C(=O)O)cc3C3C=CCC32)cc1 (centres undefined),> 100 µM (inactive),
COc1ccc(CNC(=O)C(C)OC(=O)c2cc(-c3ccco3)nc3ccccc23)cc1 (centres undefined),,4.08
O=C(O)c1ccc(C2Nc3ccc(F)cc3C3C=CCC32)cc1 (centres undefined),> 100 µM (inactive),
Cc1ccc(NC(=O)Cn2c(O)c(N=NC(=O)c3cc4ccccc4cc3O)c3ccccc32)cc1,> 100 µM (inactive),
Cc1[nH][nH]c(=O)c1C(c1ccc(-c2ccc(F)cc2)o1)c1c(C)[nH][nH]c1=O,> 100 µM (inactive),
COc1ccc(-n2c(NC(=O)c3ccc(Br)o3)c(C#N)c3nc4ccccc4nc32)cc1,> 100 µM (inactive),
O=S(=O)(Nc1ccccc1F)c1ccc2c(c1)C1C=CCC1C(c1ccc(F)cc1)N2 (centres undefined),> 100 µM (inactive),

# Next, values leading:
IC50,pIC50,SMILES
> 100 µM (inactive),,Cc1ccc(Nc2cc3ccccc3c(=O)[nH]2)cc1
,4.58 and 4.51,O=C(N/N=C/c1ccc(F)cc1)c1cc(-c2ccco2)nc2ccccc12
> 100 µM (inactive),,O=C(Nc1ccccc1N1CCOCC1)c1cc(-c2ccco2)nc2ccccc12
> 100 µM (inactive),,Cc1cccc(Nc2cc3ccccc3c(=O)[nH]2)c1
,4.23,Cc1ccc(CNC(=O)COC(=O)c2cc(-c3ccco3)nc3ccccc23)cc1
> 100 µM (inactive),,CC(=NOCc1nc2ccccc2c(=O)n1N=Cc1cc(C)cc([N+](=O)[O-])c1O)c1ccccc1
> 100 µM (inactive),,C/C(=N\OCc1nc2ccccc2c(=O)n1/N=C/c1cc(Br)ccc1O)c1ccccc1
> 100 µM (inactive),,S=c1[nH]nc(-c2cc(-c3ccccc3)n[nH]2)n1N=Cc1c(Cl)cccc1Cl
> 100 µM (inactive),,COc1ccccc1CNC(=O)c1cc(-c2ccco2)nc2ccccc12
> 100 µM (inactive),,O=C(NN=Cc1ccc(F)cc1)c1cc(-c2ccco2)nc2ccccc12
> 100 µM (inactive),,O=C(COC(=O)c1cc(-c2ccco2)nc2ccccc12)NCc1ccccc1Cl
,4.08,COc1ccccc1CNC(=O)COC(=O)c1cc(-c2cccs2)nc2ccccc12
> 100 µM (inactive),,Cc1ccc(O)c(N=Cc2ccc(C)s2)c1
,4.48,COc1ccc(CNC(=O)COC(=O)c2cc(-c3cccs3)nc3ccccc23)cc1
> 100 µM (inactive),,O=c1[nH]c(Nc2ccccc2)cc2ccccc12
> 100 µM (inactive),,S=c1[nH]nc(-c2cc(-c3ccccc3)n[nH]2)n1N=Cc1cccc(Cl)c1
> 100 µM (inactive),,O=C(COC(=O)c1cc(-c2ccco2)nc2ccccc12)NCc1cccc(Cl)c1
> 100 µM (inactive),,COc1ccc(CNC(=O)c2cc(-c3ccco3)nc3ccccc23)cc1
> 100 µM (inactive),,S=c1[nH]nc(-c2cc(-c3ccccc3)n[nH]2)n1N=Cc1ccc(Br)s1

IC50,pIC50,SMILES
> 100 µM (inactive),,S=c1[nH]nc(-c2cc(-c3ccccc3)n[nH]2)n1N=Cc1ccccc1
> 100 µM (inactive),,CCNC(=O)COC(=O)c1cc(-c2ccco2)nc2ccccc12
> 100 µM (inactive),,S=c1[nH]nc(-c2cc(-c3ccccc3)n[nH]2)n1N=Cc1ccc(Cl)c(Cl)c1
,4.14,O=C(COC(=O)c1cc(-c2ccco2)nc2ccccc12)NCc1ccc(F)cc1
> 100 µM (inactive),,Cc1ccc(C=Nc2ccccc2C(N)=O)s1
> 100 µM (inactive),,CN(Cc1ccc(F)cc1)C(=O)COC(=O)c1cc(-c2ccco2)nc2ccccc12
> 100 µM (inactive),,COc1cc(-c2n[nH]c(=S)n2/N=C/c2cccn2C)cc(OC)c1OC
> 100 µM (inactive),,CCN(CC)C(=O)COC(=O)c1cc(-c2ccco2)nc2ccccc12
> 100 µM (inactive),,C/C(=N\OCc1nc2ccccc2c(=O)n1/N=C/c1ccccc1O)c1ccccc1
> 100 µM (inactive),,Cc1ccsc1C=Nc1ccccc1O
,4.14,CC(NC(=O)COC(=O)c1cc(-c2ccco2)nc2ccccc12)c1ccc(F)cc1 (centres undefined)
> 100 µM (inactive),,O=C(N=Nc1c(O)[nH]c2ccc([N+](=O)[O-])cc12)c1ccccc1Cl
> 100 µM (inactive),,COC(=O)c1c(-c2ccccc2)csc1NC(=O)/C=C/c1cccs1
,4.09,Cc1ccccc1CNC(=O)COC(=O)c1cc(-c2ccco2)nc2ccccc12
> 100 µM (inactive),,O=C(OCC(=O)N1CCc2ccccc2C1)c1cc(-c2ccco2)nc2ccccc12
> 100 µM (inactive),,Cc1ccc(S(=O)(=O)N(C)C)cc1NC(=O)c1cc(-c2ccco2)nc2ccccc12
> 100 µM (inactive),,O=c1c2ccccc2nc(COc2ccccc2)n1N=Cc1cc([N+](=O)[O-])ccc1O
> 100 µM (inactive),,C=CCn1c(NC(=O)c2ccccc2Cl)c(C#N)c2nc3ccccc3nc21
> 100 µM (inactive),,CC(=NOCc1nc2ccccc2c(=O)n1N=Cc1cc([N+](=O)[O-])ccc1O)c1ccccc1
